Reference: PubChem BioAssay (NCI)
Several values for one entry are separate records, joined by “and”; a condition that tells them apart may be missing. Equal entries are not always repeated.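 The compound was tested at five concentrations on cells cultured in 96-well plates, with a 48-hour exposure period. The concentration for 50% growth inhibition is given as GI50. TGI: total growth inhibition.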

Tests used:
Test in all cases: growth of human tumour cells (NCI), 48 h
[1] = system: MDA-N
[2] = system: DMS 114 small cell lung
[3] = system: DMS 273 small cell lung
[4] = system: LXFL 529 NSCLC
[5] = system: M19-MEL melanoma
[6] = system: RXF-631 renal
[7] = system: SNB-78 CNS
[8] = system: XF 498 CNS
[9] = system: HOP-18 NSCLC

Structure (SMILES) | TGI [1] | TGI [2] | TGI [3] | TGI [4] | TGI [5] | TGI [6] | TGI [7] | TGI [8] | TGI [9] | other results
[O-][N+]1(CC[N+]2([O-])CCCCC2)CCCCC1 | > 100 µM | – | – | – | – | – | – | – | – | –
CCc1cccc(C)c1NC(=O)CCc1nnc2s/c(=C\c3cccc4ccccc34)c(=O)n12 | – | > 100 µM | > 100 µM | > 100 µM | > 100 µM | > 100 µM | > 100 µM | > 100 µM | – | –
CCc1cccc(C)c1N1C(=O)C(=O)C(c2nc3ccccc3o2)C(=O)C1=O | – | – | > 100 µM | > 100 µM | > 100 µM | – | > 100 µM | > 100 µM | > 100 µM | –
O=C(O)c1cc(=O)c2c([nH]c3ccccc32)s1 | – | > 100 µM | – | > 100 µM | > 100 µM | > 100 µM | > 100 µM | > 100 µM | – | –
C[Si](C)(c1ccc(C(=O)O)cc1)c1ccc(C(=O)O)cc1 | > 100 µM | – | – | – | – | – | – | – | – | –
CCCn1cnc2c(SCC(=O)O)nc(N)nc21 | > 100 µM | – | – | – | – | – | – | – | – | –
COC(=O)C1=C(CS(=O)c2ccc([N+](=O)[O-])cc2[N+](=O)[O-])C2C=CC1C2 (stereo not drawn) | – | 49.5 µM | 43 µM | 56.9 µM | 64.2 µM | 32.7 µM | > 100 µM | 64.1 µM | > 100 µM | –
Cc1c(C(=O)/C=C/C=C/c2ccccc2)[n+](=O)c2ccccc2n1[O-] | – | > 100 µM | > 100 µM | 51.2 µM | > 100 µM | – | > 100 µM | 95.3 µM | > 100 µM | –
Cl/C(N=Nc1ccccc1)=N/Nc1ccccc1 | – | – | > 100 µM | > 100 µM | > 100 µM | > 100 µM | > 100 µM | > 100 µM | > 100 µM | –
O=[N+]([O-])c1cccc(-c2nc(-c3ccccc3)c(-c3ccccc3)[nH]2)c1 | > 100 µM | – | – | – | – | – | – | – | – | –
CN(C)c1nc(=NCc2ccco2)ss1 | 33.7 µM | – | > 34.6 µM | > 100 µM | > 43.6 µM | – | > 100 µM | > 100 µM | > 100 µM | –
O=c1nc(-c2ccccc2)cc(CC(O)c2ccc(Cl)c(Cl)c2)[nH]1 (stereo not drawn) | – | > 100 µM | > 100 µM | > 100 µM | > 100 µM | – | – | – | > 100 µM | –
CCOC(=O)CN(Cn1cncn1)Cn1cncn1 | – | – | 39.8 µM | > 100 µM | > 100 µM | – | > 100 µM | 40.9 µM | > 100 µM | –
C[Si](C)(C)C(CCCCSc1ccccc1)(Sc1ccccc1)Sc1ccccc1 | – | > 100 µM | > 100 µM | > 100 µM | > 100 µM | > 100 µM | > 100 µM | > 100 µM | – | –
O=[N+]([O-])c1nccn1CC(O)CN1CCCCC1 (stereo not drawn) | > 100 µM | – | – | – | – | – | – | – | – | –
CC[C@@]1(OC(=O)CN)C(=O)OCc2c1cc1n(c2=O)Cc2c-1nc1cc3c(cc1c2CCl)OCO3 | 0.645 µM | – | – | – | – | – | – | – | – | GI50 [1]: 0.0885 µM
CCc1ccccc1NC(=O)/C=C/c1ccccc1 | > 100 µM | – | – | – | – | – | – | – | – | –
COC(=O)C1C(=O)CC2CCCCC21 (stereo not drawn) | – | > 100 µM | > 100 µM | > 100 µM | > 100 µM | – | > 100 µM | – | – | –

Structure (SMILES) | TGI [1] | TGI [2] | TGI [3] | TGI [4] | TGI [5] | TGI [6] | TGI [7] | TGI [8] | TGI [9] | other results
COC(=O)C(CCC(=O)CCl)N1C(=O)c2ccccc2C1=O (stereo not drawn) | 23.9 µM | – | – | – | – | – | – | – | – | –
CC1=C2C(=CC(C)(C)[C@@H]2O)C(=O)[C@](C)(O)C12CC2 | 0.0424 µM and 0.0278 µM | 0.101 µM | 0.0189 µM | 0.0927 µM | 0.163 µM | – | – | 0.0326 µM | 0.0865 µM | GI50 [1]: 0.0126 µM
Cc1nc2ccc(Br)cc2c(=O)n1-c1ccc(NC2OCC(O)C(O)C2O)cc1 (stereo not drawn) | > 100 µM | – | – | – | – | – | – | – | – | GI50 [1]: 43.9 µM and > 100 µM
O=C1OC(c2ccccc2)=N/C1=C\c1ccc(Oc2ccc(Cl)c(Cl)c2)cc1 | – | 35.6 µM | – | 85.6 µM | > 100 µM | – | 85.7 µM | – | > 100 µM | –
COc1ccc(-c2cc(C(=O)Nc3cc(C(F)(F)F)cc(C(F)(F)F)c3)c3ccccc3n2)cc1 | – | 21.1 µM | 21.1 µM | 20.9 µM | 63 µM | – | 52.1 µM | 22.5 µM | 51.8 µM | –
[O-]c1ccccc1C=Nc1ccc2c(c1)CCC2.[O-]c1ccccc1C=Nc1ccc2c(c1)CCC2.[O]=[U+2]=[O] | – | > 100 µM | > 100 µM | > 100 µM | > 100 µM | > 100 µM | > 100 µM | > 100 µM | > 100 µM | GI50 [2]: 7.05 µM; GI50 [3]: 14.2 µM; GI50 [9]: 8.74 µM; GI50 [4]: 28.4 µM; GI50 [5]: > 100 µM; GI50 [6]: > 100 µM; GI50 [7]: > 100 µM; GI50 [8]: > 100 µM
O=C(O)/C=C\C(=O)Nc1ccccn1 | > 100 µM | – | – | – | – | – | – | – | – | –
Cc1ccc(S(=O)(=O)N=NC=C2c3ccccc3N(O)c3ccccc32)cc1 | – | 10.8 µM | 15.1 µM | 2.41 µM | 23.4 µM | 10.2 µM | 32.8 µM | – | 20.8 µM | –
Cn1c(=O)c2[nH]c(SCCN3CCOCC3)nc2n(C)c1=S | > 100 µM | – | – | – | – | – | – | – | – | –
CCOc1ccc(/C(C=O)=C(\Cl)c2ccc(OC)cc2)cc1 | – | > 100 µM | > 100 µM | > 100 µM | > 100 µM | – | > 100 µM | > 100 µM | > 100 µM | –
COC(=O)CCC12CCC(=O)C1[C@@H](C(=O)OC)C[C@H]2C(=O)OC (stereo partly drawn) | – | > 100 µM | > 100 µM | > 100 µM | > 100 µM | > 100 µM | > 100 µM | > 100 µM | > 100 µM | –
O=c1cc(-c2ccc(O)cc2)oc2cc(O[C@@H]3O[C@H](CO)[C@@H](O)[C@H](O)[C@H]3O)cc(O)c12 | > 100 µM | – | – | – | – | – | – | – | – | –
Cc1cc(Cl)ccc1OCC(=O)Nc1nc(N)nc(N)n1 | > 100 µM | – | – | – | – | – | – | – | – | –
COc1ccc(OC(C(=O)O)C(C)C)c2c1CCCC2=O (stereo not drawn) | – | > 100 µM | > 100 µM | > 100 µM | > 100 µM | > 100 µM | > 100 µM | > 100 µM | > 100 µM | –
CC(C)(O)/C=C/C(=O)[C@](C)(O)[C@H]1[C@H](O)C[C@@]2(C)[C@@H]3CC=C4[C@@H](C[C@H](O)C(=O)C4(C)C)[C@]3(C)C(=O)C[C@]12C | – | 0.948 µM and 9.41 µM | 0.543 µM | 4.09 µM | 20.7 µM | 0.549 µM and 1.97 µM | 0.92 µM and 1.67 µM | – | 0.41 µM and 0.394 µM | GI50 [2]: 0.108 µM; GI50 [3]: 0.108 µM; GI50 [9]: 0.0838 µM; GI50 [4]: 0.0484 µM; GI50 [5]: 0.0781 µM; GI50 [6]: 0.116 µM and 0.34 µM; GI50 [7]: 0.203 µM
O=C1C(=O)N(c2ccc(Cl)cc2)C(=O)C(=O)C1c1nc2ccccc2s1 | – | > 100 µM | > 100 µM | > 100 µM | > 100 µM | – | > 100 µM | > 100 µM | > 100 µM | –
Clc1cccc(N2CCN(CCCN3CCc4c([nH]c5ccccc45)C3c3cccnc3)CC2)c1 (stereo not drawn) | – | – | 27.9 µM | 24.4 µM | 23.4 µM | > 100 µM | 9.39 µM | – | 36 µM | GI50 [3]: 12.6 µM; GI50 [4]: 11.3 µM; GI50 [6]: 19.5 µM; GI50 [7]: 2.88 µM
